These results are taken from patent US20090105217A1, “2-PHENYL-5-AMINO-1,3,4-OXADIAZOLES AND THEIR USE AS NICOTINIC ACETYLCHOLINE RECEPTOR LIGANDS” (priority 2007, published 2009).

Counter-ions that a name gives are not always drawn. Some results are limits rather than exact numbers.

The target in the assay is T1, human α7 nAChR (Homo sapiens, UniProt P36544).
T1 construct: host or cells: GH4C1 cells (pituitary tumor, immortalized cell line)
In words: α7 nAChR FLIPR (Fluorometric Imaging Plate Reader) Ca2+ assay, agonist EC50. Particulars: for EC50: GH4C1 cells stably transfected with human α7 nAChR, Fluo-4 Ca2+ fluorescence, Examples 194 to 205 tested as the HCl salt, read-out: pEC50 value (negative logarithm of the agonist EC50) (converted). Type of assay: cell-based. The method, then:
α7 nAChR FLIPR® (Fluorometric Imaging Plate Reader) Assay
Function of the heterologous expressed α7 nAChR was assessed by a FLIPR-Ca^2+ assay. Since nAChRs are non-selective cation channels with high permeability to Ca^2+, these studies were carried out by measuring changes of intracellular Ca^2+ concentration using the Ca^2+-chelating fluorescent dye Fluo-4 and FLIPR® (Fluorometric Imaging Plate Reader) technology.
GH4C1cells (pituitary tumor, immortalized cell line) stably transfected with human α7 nAChR (Biocat ID 96986), were thawed, suspended in growth medium (Ham's Nutrient Mixture F10—Ham's F10, Invitrogen 31550-023, 15% Horse Serum heat inactivated—Invitrogen 26050-047, 2.5% Foetal Bovine Serum—FBS, Gibco 10500-064, 200 μg/ml Hygromycin B—Invitrogen, 10687-010, 10 mg/L Phenol Red—Sigma, P 0290, 1 mM Glutamine—Invitrogen, 25030-024) and plated in 500 cm^2 Triple Flask.
Cells were then incubated at 30° C., 5% CO2 for 72 hours.
On the day of the experiment, cells were washed twice with Assay Buffer (AB) (145 mM NaCl, 5 mM KCl, 1 mM MgCl2, 2 mM CaCl2, 20 mM HEPES, 5.5 mM Glucose pH=7.3) containing 2.5 mM Probenecid. Changes in the intracellular Ca^2+ content of stably transfected cells were measured using the Ca^2+ chelating dye Fluo-4 (Tef Labs 0152) in conjunction with a FLIPR® (Molecular Devices). The cell permeant dye Fluo-4 was prepared to a concentration of 1 mM in 100% DMSO and 10% Pluronic acid. The dye was then diluted with AB to a final concentration of 2 μM and placed on the cells. After 45-60 minutes dye loading incubation at 37° C., the unincorporated dye was removed from the cells by washing (80 μL, 3 times) with AB, and a final volume of 30 μL/well of AB was left in each well.
Plates containing test compounds (dissolved in 100% DMSO at 2 mM and serially diluted with DMSO) were copied into “daughter” plates (1 μL/well dispensation). Just prior to starting the assay, the “daughter” plate was diluted with 50 μL/well of AB.
The plates were then placed in the FLIPR®, and cell fluorescence was determined before drug addition (30 seconds) and monitored (excitation 488 nm, emission 510-580 nm) immediately following exposure to compounds. Maximum fluorescence values were recorded and fitted for agonist EC50 calculations.
The results are expressed as pEC50 values. A pEC50 is the negative logarithm of the agonist EC50 calculation as determined in the α7 nAChR FLIPR® assay. […] Variations in pEC50 may arise between tests.

T1 sequence (P36544 23-502): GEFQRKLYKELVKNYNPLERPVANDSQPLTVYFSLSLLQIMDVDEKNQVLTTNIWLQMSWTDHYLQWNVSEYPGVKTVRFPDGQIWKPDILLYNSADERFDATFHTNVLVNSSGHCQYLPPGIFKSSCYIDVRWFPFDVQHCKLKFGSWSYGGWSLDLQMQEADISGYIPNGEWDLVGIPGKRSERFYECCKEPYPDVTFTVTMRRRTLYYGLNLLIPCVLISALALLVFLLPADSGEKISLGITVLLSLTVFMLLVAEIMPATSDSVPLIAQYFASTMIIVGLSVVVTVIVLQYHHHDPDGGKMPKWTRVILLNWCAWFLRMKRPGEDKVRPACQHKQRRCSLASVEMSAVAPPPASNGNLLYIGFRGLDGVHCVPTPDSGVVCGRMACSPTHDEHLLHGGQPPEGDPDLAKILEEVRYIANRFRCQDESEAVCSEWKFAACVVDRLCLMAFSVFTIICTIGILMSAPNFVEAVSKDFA

For `CC(C)(C)C(=O)Nc1ccc(-c2nnc(NCCCN3CCCCC3)o2)cc1` [2,2-dimethyl-N-[4-(5-{[3-(1-piperidinyl)propyl]amino}-1,3,4-oxadiazol-2-yl)phenyl]propanamide], the “activity in the alpha 7 assay” value (alpha 7 assay described in the Examples) is “not found to have activity”.
What is called EC50 is the concentration giving half of the maximal effect. In the case of `CCN(CC)CCCNc1nnc(-c2ccc(NC(=O)c3ccccc3F)cc2OC)o1` [Example 2, N-[4-(5-{[3-(Diethylamino)propyl]amino}-1,3,4-oxadiazol-2-yl)-3-(methyloxy)phenyl]-2-fluorobenzamidehydrochloride], the EC50 is ≤ 1000 nM.
On the same count and under the same terms, then `O=C(Nc1ccc(-c2nnc(NCCCN3CCCCC3)o2)cc1)c1cccs1` [Example 8, N-[4-(5-{[3-(1-Piperidinyl)propyl]amino}-1,3,4-oxadiazol-2-yl)phenyl]-2-thiophenecarboxamidehydrochloride], with ≤ 1000 nM; and `O=C(Nc1ccc(-c2nnc(NCCCN3CCCCC3)o2)cc1)c1ccsc1` [Example 10, N-[4-(5-{[3-(1-Piperidinyl)propyl]amino}-1,3,4-oxadiazol-2-yl)phenyl]-3-thiophenecarboxamidehydrochloride], with ≤ 1000 nM.
With `O=C(Nc1ccc(-c2nnc(NCCCN3CCCCC3)o2)cc1)c1cccc(Cl)c1` [Example 12, 3-Chloro-N-[4-(5-{[3-(1-piperidinyl)propyl]amino}-1,3,4-oxadiazol-2-yl)phenyl]benzamidehydrochloride], the concentration for a half-maximal effect (EC50) was ≤ 1000 nM.
The same measure, in the same setting: then `O=C(Nc1ccc(-c2nnc(NCCCN3CCCCC3)o2)cc1)c1cccnc1` [Example 13, N-[4-(5-{[3-(1-Piperidinyl)propyl]amino}-1,3,4-oxadiazol-2-yl)phenyl]-3-pyridinecarboxamidehydrochloride], with ≤ 1000 nM.
On the same count and under the same terms, then `O=C(Nc1ccc(-c2nnc(NCCCN3CCCCC3)o2)cc1)c1cccc(F)c1F` [Example 16, 2,3-Difluoro-N-[4-(5-{[3-(1-piperidinyl)propyl]amino}-1,3,4-oxadiazol-2-yl)phenyl]benzamidehydrochloride], with ≤ 1000 nM; and `O=C(Nc1ccc(-c2nnc(NCCCN3CCCCC3)o2)cc1)c1ccccn1` [Example 17, N-[4-(5-{[3-(1-Piperidinyl)propyl]amino}-1,3,4-oxadiazol-2-yl)phenyl]-2-pyridinecarboxamidehydrochloride], with ≤ 1000 nM.
Still for that read-out and setting: with `O=C(Nc1ccc(-c2nnc(NCCCN3CCCCC3)o2)cc1)c1ccc(Cl)cc1` [Example 18, 4-Chloro-N-[4-(5-{[3-(1-piperidinyl)propyl]amino}-1,3,4-oxadiazol-2-yl)phenyl]benzamidehydrochloride] the figure was ≤ 1000 nM.
As for `O=C(Nc1ccc(-c2nnc(NCCCCN3CCC(F)CC3)o2)c(F)c1)c1ccccc1F` [Example 26, 2-Fluoro-N-[3-fluoro-4-(5-{[4-(4-fluoro-1-piperidinyl)butyl]amino}-1,3,4-oxadiazol-2-yl)phenyl]benzamide], the concentration for a half-maximal effect (EC50) is ≤ 100 nM.
Same read-out and setting: then `COc1cc(NC(=O)C2CCCCC2)ccc1-c1nnc(NCCCN2CCCCC2)o1` [Example 28, N-[3-(methyloxy)-4-(5-{[3-(1-piperidinyl)propyl]amino}-1,3,4-oxadiazol-2-yl)phenyl]cyclohexanecarboxamide], with ≤ 1000 nM; and `COc1cc(NC(=O)c2ccccc2)ccc1-c1nnc(NCCCCN2CCCCC2)o1` [Example 32, N-[3-(methyloxy)-4-(5-{[4-(1-piperidinyl)butyl]amino}-1,3,4-oxadiazol-2-yl)phenyl]benzamide], with ≤ 100 nM; and `O=C(Nc1ccc(-c2nnc(NCCCCN3CCCCC3)o2)c(F)c1)c1ccccc1F` [Example 46, 2-fluoro-N-[3-fluoro-4-(5-{[4-(1-piperidinyl)butyl]amino}-1,3,4-oxadiazol-2-yl)phenyl]benzamide], with ≤ 100 nM.
Same read-out and setting: then `O=C(Nc1ccc(-c2nnc(NCCCN3CCCC3)o2)c(F)c1)c1ccccc1F` [Example 47, 2-fluoro-N-[3-fluoro-4-(5-{[3-(1-pyrrolidinyl)propyl]amino}-1,3,4-oxadiazol-2-yl)phenyl]benzamide], with ≤ 1000 nM.
Still for that read-out and setting: with `O=C(Nc1ccc(-c2nnc(NCCCCN3CCCC3)o2)c(F)c1)c1ccccc1F` [Example 48, 2-fluoro-N-[3-fluoro-4-(5-{[4-(1-pyrrolidinyl)butyl]amino}-1,3,4-oxadiazol-2-yl)phenyl]benzamide] the figure was ≤ 100 nM; with `CCN(CC)CCCNc1nnc(-c2ccc(NC(=O)c3ccccc3F)cc2F)o1` [Example 50, N-[4-(5-{[3-(diethylamino)propyl]amino}-1,3,4-oxadiazol-2-yl)-3-fluorophenyl]-2-fluorobenzamide], ≤ 1000 nM; with `CCN(CC)CCCCNc1nnc(-c2ccc(NC(=O)c3ccccc3F)cc2F)o1` [Example 51, N-[4-(5-{[4-(diethylamino)butyl]amino}-1,3,4-oxadiazol-2-yl)-3-fluorophenyl]-2-fluorobenzamide], ≤ 1000 nM.
With `CCN(CC)CCCCNc1nnc(-c2ccc(NC(=O)c3ccccc3F)cc2OC)o1` [Example 52, N-[4-(5-{[4-(diethylamino)butyl]amino}-1,3,4-oxadiazol-2-yl)-3-(methyloxy)phenyl]-2-fluorobenzamide], the EC50 is ≤ 100 nM.
For the compound `O=C(Nc1ccc(-c2nnc(NCCCN3CCCCC3)o2)c(F)c1)C1CCCCC1` [Example 53, N-[3-fluoro-4-(5-{[3-(1-piperidinyl)propyl]amino}-1,3,4-oxadiazol-2-yl)phenyl]cyclohexanecarboxamide], the EC50 is ≤ 1000 nM.
Still for that read-out and setting: then `O=C(Nc1ccc(-c2nnc(NCCCCN3CCCCC3)o2)c(F)c1)C1CCCCC1` [Example 54, N-[3-fluoro-4-(5-{[4-(1-piperidinyl)butyl]amino}-1,3,4-oxadiazol-2-yl)phenyl]cyclohexanecarboxamide], with ≤ 100 nM; and `O=C(Nc1ccc(-c2nnc(NCCCCN3CCCC3)o2)c(F)c1)C1CCCCC1` [Example 55, N-[3-fluoro-4-(5-{[4-(1-pyrrolidinyl)butyl]amino}-1,3,4-oxadiazol-2-yl)phenyl]cyclohexanecarboxamide], with ≤ 100 nM.
Still for that read-out and setting: then `O=C(Nc1ccc(-c2nnc(NCCCN3CCCC3)o2)c(F)c1)C1CCCCC1` [Example 56, N-[3-fluoro-4-(5-{[3-(1-pyrrolidinyl)propyl]amino}-1,3,4-oxadiazol-2-yl)phenyl]cyclohexanecarboxamide], with ≤ 1000 nM.
Still for that read-out and setting: then `O=C(Nc1ccc(-c2nnc(NCCCCN3CCOCC3)o2)c(F)c1)C1CCCCC1` [Example 58, N-[3-fluoro-4-(5-{[4-(4-morpholinyl)butyl]amino}-1,3,4-oxadiazol-2-yl)phenyl]cyclohexanecarboxamide], with ≤ 1000 nM; and `CCN(CC)CCCNc1nnc(-c2ccc(NC(=O)C3CCCCC3)cc2F)o1` [Example 59, N-[4-(5-{[3-(diethylamino)propyl]amino}-1,3,4-oxadiazol-2-yl)-3-fluorophenyl]cyclohexanecarboxamide], with ≤ 1000 nM.
Turning to `CCN(CC)CCCCNc1nnc(-c2ccc(NC(=O)C3CCCCC3)cc2F)o1` [Example 60, N-[4-(5-{[4-(diethylamino)butyl]amino}-1,3,4-oxadiazol-2-yl)-3-fluorophenyl]cyclohexanecarboxamide], the EC50 is ≤ 1000 nM.
The same measure, in the same setting: then `O=C(Nc1ccc(-c2nnc(NCCCN3CCCCC3)o2)c(C(F)(F)F)c1)C1CCCCC1` [Example 61, N-[4-(5-{[3-(1-piperidinyl)propyl]amino}-1,3,4-oxadiazol-2-yl)-3-(trifluoromethyl)phenyl]cyclohexanecarboxamide], with ≤ 1000 nM.
Same read-out and setting: then `O=C(Nc1ccc(-c2nnc(NCCCCN3CCCCC3)o2)c(C(F)(F)F)c1)C1CCCCC1` [Example 62, N-[4-(5-{[4-(1-piperidinyl)butyl]amino}-1,3,4-oxadiazol-2-yl)-3-(trifluoromethyl)phenyl]cyclohexanecarboxamide], with ≤ 100 nM; and `O=C(Nc1ccc(-c2nnc(NCCCN3CCCC3)o2)c(C(F)(F)F)c1)C1CCCCC1` [Example 63, N-[4-(5-{[3-(1-pyrrolidinyl)propyl]amino}-1,3,4-oxadiazol-2-yl)-3-(trifluoromethyl)phenyl]cyclohexanecarboxamide], with ≤ 1000 nM.
